Results: US20220193445A1, “PHOTOERADICATION OF MICROORGANISMS WITH PULSED PURPLE OR BLUE LIGHT” (SAN DIEGO STATE UNIVERSITY RESEARCH FOUNDATION, priority 2016, published 2022)
Values joined by “and” are separate entries in the source; they are usually repeats but may differ in a detail not shown here. Equal entries are not always repeated.

Experiments:
[1] = test system: GBS wild type strain COH1; experiment: GBS survival with porphyrin supplementation, with or without pulsed 450 nm light (Study 1, no incubation); type: cell-based, Group B Streptococcus (GBS)
Procedure: GBS wild type strain COH1 was added to 3 mL of Todd Hewitt broth and grown aerobically overnight at 37° C. From the overnight cultures, 500 uL of GBS was added to fresh Todd Hewitt broth and grown logarithmically at 37° C. until reaching a concentration of 10^8 CFU/mL. The culture was then centrifuged at 1300 rpm for three minutes, the supernatant was removed and discarded, and 1 mL of fresh Todd Hewitt broth was added. Serial dilutions of NaCl were made to obtain a suspension of GBS diluted to a concentration of 1×10^4 CFU/mL. The GBS were streaked onto Todd Hewitt agar plates both with and without the addition of diluted porphyrins (different concentrations of PPIX or CP III).
The lighted substrate was set to operate in 33% DF pulsed mode and driven with a constant current source. The average irradiance was 3 mW/cm^2. The pulse duration was 10 microseconds with an off time of 20 microseconds, and a pulse repetition rate of 33 kHz. The plates subject to light treatment were irradiated three times at […] with a radiant exposure of 7.56 J/cm^2 during each irradiation session (i.e., each irradiation session was 42 minutes with an incubation period there between of 30 minutes).
(§1) After irradiation protocols were completed, the plates were placed upside down in the anaerobic chamber and incubated at 37° C. for 24 hours. The plates were photographed, colonies counted and statistics of percent survival recorded.

[2] = test system: GBS wild type strain COH1; experiment: GBS survival with porphyrin supplementation and 30 min incubation (optional wash), with or without pulsed 450 nm light (Study 2); type: cell-based, Group B Streptococcus (GBS)
Procedure: GBS wild type strain COH1 was added to 3 mL of Todd Hewitt broth and grown aerobically overnight at 37° C. From the overnight cultures, 500 uL of GBS was added to fresh Todd Hewitt broth and grown logarithmically at 37° C. until reaching a concentration of 10^8 CFU/mL. The culture was then centrifuged at 1300 rpm for three minutes, the supernatant was removed and discarded, and 1 mL of fresh Todd Hewitt broth was added.
The culture was then split into three Eppendorf tubes—a first tube for GBS and second and third tubes for GBS with diluted porphyrins used for incubation. Diluted porphyrins (PPIX or CP III) were added into the second and third tubes and incubated for 30 minutes at 37° C. The third tube was then washed three times with phosphate-buffered saline (PBS) and centrifuged at 1300 rpm for three minutes, and the supernatant was removed and discarded. Serial dilutions of NaCl were made to obtain a suspension of GBS diluted to a concentration of 1×10^4 CFU/mL. The GBS were streaked onto Todd Hewitt agar plates.
The lighted substrate was set to operate in 33% DF pulsed mode and driven with a constant current source. The average irradiance was 3 mW/cm^2. The pulse duration was 10 microseconds with an off time of 20 microseconds, and a pulse repetition rate of 33 kHz. The plates subject to light treatment were irradiated three times at […] with a radiant exposure of 7.56 J/cm^2 during each irradiation session (i.e., each irradiation session was 42 minutes with an incubation period therebetween of 30 minutes).
as §1

[3] = 0.05 mg/mL porphyrin + pulsed 450 nm light, 7.56 J/cm^2, 3 mW/cm^2, 33% DF, three irradiations
[4] = 0.2 mg/mL (incubated) + pulsed 450 nm light 7.56 J/cm^2, three irradiations
[5] = 0.2 mg/mL (incubated), without any irradiation

| Compound | percent GBS survival compared to the control ([1]; 0.02 mg/mL porphyrin + pulsed 450 nm light, 7.56 J/cm^2, 3 mW/cm^2, 33% DF, three irradiations) | percent GBS survival compared to the control [1, 3] | percent GBS survival compared to the control ([2]; 0.02 mg/mL (incubated and washed) + pulsed 450 nm light 7.56 J/cm^2, three irradiations) | percent GBS survival compared to the control ([2]; 0.02 mg/mL (incubated and washed), no irradiation) | percent GBS survival compared to the control ([2]; 0.02 mg/mL (incubated) + pulsed 450 nm light 7.56 J/cm^2, three irradiations) | percent GBS survival compared to the control ([2]; 0.02 mg/mL (incubated), without any irradiation) | percent GBS survival compared to the control ([2]; 0.08 mg/mL (incubated and washed) + pulsed 450 nm light 7.56 J/cm^2, three irradiations) | percent GBS survival compared to the control ([2]; 0.08 mg/mL (incubated and washed), no irradiation) | percent GBS survival compared to the control ([2]; 0.08 mg/mL (incubated) + pulsed 450 nm light 7.56 J/cm^2, three irradiations) | percent GBS survival compared to the control ([2]; 0.08 mg/mL (incubated), without any irradiation) | percent GBS survival compared to the control ([2]; 0.2 mg/mL (incubated and washed) + pulsed 450 nm light 7.56 J/cm^2, three irradiations) | percent GBS survival compared to the control ([2]; 0.2 mg/mL (incubated and washed), no irradiation) | percent GBS survival compared to the control [2, 4] | percent GBS survival compared to the control [2, 5] | percent GBS survival compared to the control ([1]; 0.02 mg/mL porphyrin, without any irradiation) | percent GBS survival compared to the control ([1]; 0.05 mg/mL porphyrin, without any irradiation) | percent GBS survival compared to the control ([2]; 0.05 mg/mL (incubated and washed) + pulsed 450 nm light 7.56 J/cm^2, three irradiations) | percent GBS survival compared to the control ([2]; 0.05 mg/mL (incubated and washed), no irradiation) | percent GBS survival compared to the control ([2]; 0.05 mg/mL (incubated) + pulsed 450 nm light 7.56 J/cm^2, three irradiations) | percent GBS survival compared to the control ([2]; 0.05 mg/mL (incubated), without any irradiation) |
| --- | --- | --- | --- | --- | --- | --- | --- | --- | --- | --- | --- | --- | --- | --- | --- | --- | --- | --- | --- | --- |
| C=CC1=C(C)c2cc3[nH]c(cc4nc(cc5[nH]c(cc1n2)c(C)c5CCC(=O)O)C(CCC(=O)O)=C4C)c(C)c3C=C [PPIX, protoporphyrin IX] | 0% | 3% and 0% | approximately 18% | approximately 92% | approximately 68% | approximately 92% | approximately 40% | approximately 76% | approximately 52% | approximately 84% | approximately 10% | approximately 78% | approximately 50% | approximately 80% | – | – | – | – | – | – |
| coproporphyrin III [CP III] | – | 0% | – | – | – | – | – | – | – | – | – | – | 0% | approximately 82% | approximately 74% | approximately 84% | 0% | approximately 72% | 0% | approximately 90% |
